Source: the supplement of paper PMC10307832

Assays:
Assay in all cases: relative viability (nuclei count vs DMSO), 5 days (fraction); higher = more cells survive
Bexarotene + Trametinib = compound: C=C(c1ccc(C(=O)O)cc1)c1cc2c(cc1C)C(C)(C)CCC2(C)C [Bexarotene] + CC(=O)Nc1cccc(-n2c(=O)n(C3CC3)c(=O)c3c(Nc4ccc(I)cc4F)n(C)c(=O)c(C)c32)c1 [Trametinib] (partner 0.02 µM)
Outline: (§1)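 Lung cancer cell lines in 1536-well plates got either a single drug or a fixed anchor-drug dose together with five library-drug doses (not always all listed) in √10 steps, by pin tool, on the day after seeding. Nuclei were counted after 5 days, and relative viability is the treated-to-vehicle ratio of nuclei counts. Values are medians of duplicate plates.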

Bexarotene + Lapatinib = compound: C=C(c1ccc(C(=O)O)cc1)c1cc2c(cc1C)C(C)(C)CCC2(C)C [Bexarotene] + CS(=O)(=O)CCNCc1ccc(-c2ccc3ncnc(Nc4ccc(OCc5cccc(F)c5)c(Cl)c4)c3c2)o1 [Lapatinib] (partner 2 µM)
Outline: as §1

Bexarotene + Phenformin = compound: C=C(c1ccc(C(=O)O)cc1)c1cc2c(cc1C)C(C)(C)CCC2(C)C [Bexarotene] + N=C(N)NC(=N)NCCc1ccccc1 [Phenformin] (partner 250 µM)
Outline: as §1

Bexarotene + Olaparib = compound: C=C(c1ccc(C(=O)O)cc1)c1cc2c(cc1C)C(C)(C)CCC2(C)C [Bexarotene] + O=C(c1cc(Cc2n[nH]c(=O)c3ccccc23)ccc1F)N1CCN(C(=O)C2CC2)CC1 [Olaparib] (partner 8 µM)
Outline: as §1

| Cell Line | relative viability (Bexarotene + Trametinib; first compound 0.08 µM) | relative viability (Bexarotene + Trametinib; first compound 0.253 µM) | relative viability (Bexarotene + Trametinib; first compound 0.8 µM) | relative viability (Bexarotene + Trametinib; first compound 2.53 µM) | relative viability (Bexarotene + Trametinib; first compound 8 µM) | relative viability (Bexarotene + Lapatinib; first compound 0.08 µM) | relative viability (Bexarotene + Lapatinib; first compound 0.253 µM) | relative viability (Bexarotene + Lapatinib; first compound 0.8 µM) | relative viability (Bexarotene + Lapatinib; first compound 2.53 µM) | relative viability (Bexarotene + Lapatinib; first compound 8 µM) | relative viability (Bexarotene + Phenformin; first compound 0.08 µM) | relative viability (Bexarotene + Phenformin; first compound 0.253 µM) | relative viability (Bexarotene + Phenformin; first compound 0.8 µM) | relative viability (Bexarotene + Phenformin; first compound 2.53 µM) | relative viability (Bexarotene + Phenformin; first compound 8 µM) | relative viability (Bexarotene + Olaparib; first compound 0.08 µM) | relative viability (Bexarotene + Olaparib; first compound 0.253 µM) | relative viability (Bexarotene + Olaparib; first compound 0.8 µM) | relative viability (Bexarotene + Olaparib; first compound 2.53 µM) | relative viability (Bexarotene + Olaparib; first compound 8 µM) |
| --- | --- | --- | --- | --- | --- | --- | --- | --- | --- | --- | --- | --- | --- | --- | --- | --- | --- | --- | --- | --- |
| HCC-827 | 0.525 | 0.576 | 0.493 | 0.496 | 0.51 | 0.274 | 0.159 | 0.185 | 0.196 | 0.196 | 0.51 | 0.444 | 0.493 | 0.463 | 0.444 | 0.714 | 0.637 | 0.763 | 0.666 | 0.625 |
| HCC-78 | 0.833 | 0.952 | 0.545 | 0.708 | 0.861 | 0.724 | 0.7 | 0.591 | 0.637 | 0.668 | 1.01 | 0.732 | 0.599 | 0.596 | 0.73 | 0.756 | 0.984 | 0.769 | 0.883 | 0.835 |
| NCI-H2085 | 0.486 | 0.59 | 0.4 | 0.449 | 0.535 | 0.739 | 0.723 | 0.596 | 0.703 | 0.731 | 0.759 | 0.646 | 0.531 | 0.678 | 0.718 | 0.691 | 0.709 | 0.693 | 0.676 | 0.694 |
| PC-14 | 0.708 | 0.901 | 0.961 | 0.818 | 0.821 | 0.347 | 0.401 | 0.365 | 0.327 | 0.337 | 0.611 | 0.61 | 0.523 | 0.435 | 0.522 | 0.268 | 0.349 | 0.243 | 0.213 | 0.214 |
| NCI-H1648 | 0.448 | 0.483 | 0.559 | 0.469 | 0.529 | – | – | – | – | – | – | – | – | – | – | 0.927 | 1.34 | 0.712 | 0.766 | 0.685 |
| A-427 | 0.726 | 0.643 | 0.629 | 0.517 | 0.599 | 1.03 | 0.997 | 0.929 | 0.997 | 1.04 | 0.322 | 0.305 | 0.348 | 0.3 | 0.307 | 0.716 | 0.781 | 0.654 | 0.743 | 0.728 |
| H3255 | 0.715 | 0.759 | 0.615 | 0.626 | 0.674 | 0.257 | 0.256 | 0.228 | 0.245 | 0.219 | 0.391 | 0.336 | 0.382 | 0.419 | 0.416 | 0.603 | 0.692 | 0.659 | 0.642 | 0.654 |
| HCC-44 | 1.02 | 1.03 | 0.884 | 0.899 | 1.08 | 1.06 | 1.06 | 0.919 | 0.924 | 0.879 | 0.148 | 0.409 | 0.27 | 0.145 | 0.289 | 1.07 | 1.11 | 1.05 | 1.03 | 1.05 |
| NCI-H1734 | 0.69 | 0.732 | 0.642 | 0.589 | 0.57 | 1.02 | 1.04 | 1.07 | 0.942 | 0.944 | 0.414 | 0.339 | 0.421 | 0.335 | 0.382 | 0.669 | 0.648 | 0.573 | 0.709 | 0.633 |
| NCI-H2228 | 0.54 | 0.641 | 0.389 | 0.457 | 0.417 | 1.55 | 0.935 | 0.763 | 1.17 | 0.909 | 0.31 | 0.372 | 0.276 | 0.264 | 0.3 | 0.825 | 0.799 | 0.631 | 0.591 | 0.492 |
| ABC-1 | – | – | – | – | – | 0.914 | 1.38 | 1.14 | 1.16 | 1.09 | 0.239 | 0.225 | 0.215 | 0.303 | 0.285 | 0.827 | 0.839 | 0.478 | – | 0.631 |
| COR-L23 | 0.747 | 0.72 | 0.501 | 0.553 | 0.547 | 1.24 | 0.921 | 0.976 | 0.976 | 0.879 | 0.411 | 0.512 | 0.395 | 0.383 | 0.364 | 0.344 | 0.365 | 0.323 | 0.373 | 0.301 |
| ChaGo-K-1 | 1.02 | 1.02 | 0.978 | 1.05 | 0.932 | – | – | – | – | – | 0.563 | 0.496 | 0.539 | 0.533 | 0.536 | 0.411 | 0.413 | 0.408 | 0.395 | 0.42 |
| EBC-1 | – | – | – | – | – | 0.231 | 0.232 | 0.22 | 0.192 | 0.209 | – | – | – | – | – | 0.771 | 0.713 | 0.588 | 0.701 | 0.715 |
| NCI-H441 | 0.568 | 0.481 | 0.669 | 0.527 | 0.633 | – | – | – | – | – | 1.03 | 0.743 | 0.811 | 0.864 | 0.868 | 0.608 | 0.61 | 0.628 | 0.599 | 0.495 |
| A549 | – | – | – | – | – | 0.94 | 1.09 | 0.972 | 0.925 | 0.798 | 0.133 | 0.187 | 0.157 | 0.18 | 0.183 | 0.245 | 0.388 | 0.35 | 0.291 | 0.3 |
| NCI-H1703 | – | – | – | – | – | 1.14 | 1.11 | 0.802 | 0.834 | 0.762 | – | – | – | – | – | 0.532 | 0.494 | 0.483 | 0.386 | 0.377 |
| LCLC-103H | 0.761 | 0.697 | 0.678 | 0.663 | 0.764 | – | – | – | – | – | 0.373 | 0.349 | 0.314 | 0.348 | 0.347 | 0.827 | 0.896 | 0.699 | 0.779 | 0.825 |
| NCI-H1563 | – | – | – | – | – | 1.09 | 0.945 | 0.799 | 0.903 | 0.891 | 0.682 | 0.665 | 0.669 | 0.674 | 0.619 | – | – | – | – | – |
